# Measurements taken from patent US8865751B2, “Thiazoles, imidazoles, and pyrazoles useful as inhibitors of protein kinases” (Vertex Pharmaceuticals Incorporated, priority 2006, dated 2014).
# Read-outs that look alike come from different tables or passages of the source.
# What was measured:
# human Src kinase = human Src kinase (Homo sapiens, UniProt P12931); assay: Src inhibition assay (spectrophotometric coupled-enzyme assay); assay type: biochemical; conditions: 25 nM Src, 100 μM ATP, poly Glu,Tyr (4:1), 30° C.
# Protocol: The compounds are evaluated as inhibitors of human Src kinase using a spectrophotometric assay.
# An assay buffer solution was prepared which consisted of 25 mM HEPES (pH 7.5), 10 mM MgCl2, 250 μM NADH, 3 mM phosphoenolpyruvate, 60 μg/mL pyruvate kinase, 21 μg/mL lactate dehydrogenase, 113 μM ATP and 28 nM Src. To 60 μL of this solution, in a 96 well plate, was added 2 μL of test compound stock solution in DMSO and the mixture allowed to equilibrate for 10 mins at 30° C. The enzyme reaction was initiated by the addition of 5 μL 10 mg/mL poly Glu, Tyr (4:1) prepared in 25 mM HEPES (pH 7.5). Final assay concentrations of Src and ATP were 25 nM and 100 μM respectively. Initial rate data was determined from the rate of change of absorbance at 340 nm (corresponding to stoichiometric consumption of NADH) using a Molecular Devices Spectramax plate reader (Sunnyvale, Calif.) over 10 mins at 30° C. For each Ki determination 8 data points covering the test compound concentration range of 0-7.5 μM were obtained in duplicate. Ki values were calculated from initial rate data by non-linear regression using the Prism software package (Prism 4.0a, Graphpad Software, San Diego, Calif.).
# human Lck kinase = human Lck kinase (Homo sapiens, UniProt P06239); assay: Lck inhibition assay (spectrophotometric coupled-enzyme assay); assay type: biochemical
# Protocol: The compounds are evaluated as inhibitors of human Lck kinase using a spectrophotometric assay.
# An assay buffer solution was prepared which consisted of 25 mM HEPES (pH 7.5), 10 mM MgCl2, 250 μM NADH, 3 mM phosphoenolpyruvate, 43 μg/mL pyruvate kinase, 14 μg/mL lactate dehydrogenase, 560 μM ATP and 67 nM Lck. To 60 μL of this solution, in a 96 well plate, was added 2 μL of test compound stock solution in DMSO and the mixture allowed to equilibrate for 10 minutes at 30° C. The enzyme reaction was initiated by the addition of 5 μL 15 mg/mL poly Glu, Tyr (4:1) prepared in 25 mM HEPES (pH 7.5). Final assay concentrations of Lck and ATP are 60 nM and 500 μM respectively. Initial rate data was determined from the rate of change of absorbance at 340 nm (corresponding to stoichiometric consumption of NADH) using a Molecular Devices Spectramax plate reader (Sunnyvale, Calif.) over 10 min at 30° C. For each Ki determination 8 data points covering the test compound concentration range of 0-7.5 μM are obtained in duplicate. Ki values are calculated from initial rate data by non-linear regression using the Prism software package (Prism 4.0a, Graphpad Software, San Diego, Calif.).
# [1] = Solubility under the Lck assay conditions; assay type: physicochemical; conditions: Lck assay buffer conditions
# [2] = 60 nM Lck, 500 μM ATP, poly Glu,Tyr (4:1), 30° C., read-out: Ki value, inhibition of Lck
# human Src kinase, sequence (P12931 whole entry): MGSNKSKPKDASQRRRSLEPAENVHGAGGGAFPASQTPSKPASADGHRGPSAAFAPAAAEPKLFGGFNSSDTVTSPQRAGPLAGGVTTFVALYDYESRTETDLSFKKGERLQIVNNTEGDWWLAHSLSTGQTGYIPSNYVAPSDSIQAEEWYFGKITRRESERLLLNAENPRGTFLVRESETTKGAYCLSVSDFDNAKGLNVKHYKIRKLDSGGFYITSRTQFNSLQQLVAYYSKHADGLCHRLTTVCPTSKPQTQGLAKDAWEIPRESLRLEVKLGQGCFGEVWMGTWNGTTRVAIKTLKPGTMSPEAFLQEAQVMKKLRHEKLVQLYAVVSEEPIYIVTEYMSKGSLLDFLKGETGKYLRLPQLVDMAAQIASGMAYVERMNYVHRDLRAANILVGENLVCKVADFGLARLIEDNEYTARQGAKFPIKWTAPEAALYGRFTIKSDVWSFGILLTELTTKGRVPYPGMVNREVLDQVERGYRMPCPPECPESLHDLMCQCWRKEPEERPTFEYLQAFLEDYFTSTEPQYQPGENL
# human Lck kinase, sequence (P06239 whole entry): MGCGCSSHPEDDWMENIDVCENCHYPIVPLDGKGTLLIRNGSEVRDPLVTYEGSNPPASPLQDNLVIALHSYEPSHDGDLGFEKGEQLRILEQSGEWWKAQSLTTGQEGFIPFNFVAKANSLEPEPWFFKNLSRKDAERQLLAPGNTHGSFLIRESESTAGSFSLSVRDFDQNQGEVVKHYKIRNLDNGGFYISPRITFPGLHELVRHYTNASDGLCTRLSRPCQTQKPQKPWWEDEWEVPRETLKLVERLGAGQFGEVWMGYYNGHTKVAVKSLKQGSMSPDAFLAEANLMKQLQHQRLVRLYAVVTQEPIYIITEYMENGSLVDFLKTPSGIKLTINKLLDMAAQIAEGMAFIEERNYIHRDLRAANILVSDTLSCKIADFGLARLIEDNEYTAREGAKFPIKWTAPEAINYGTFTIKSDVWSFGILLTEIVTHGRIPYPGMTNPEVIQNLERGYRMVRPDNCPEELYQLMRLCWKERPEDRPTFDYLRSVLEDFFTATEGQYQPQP
SMILES,Ki (human Src kinase),Ki (human Lck kinase; [2]),solubility under the assay conditions [1],"Ki (human Lck kinase; read-out: Ki value, inhibition of Lck (expected))"
NC(=O)c1[nH]c(C2CCCC2)nc1-c1ccc(Oc2ccccc2)cc1 [Compound I-1],100 to 500 nM,< 100 nM,,
"NC(=O)c1cn(C2CCCC2)nc1-c1ccc(Oc2ccccc2)cc1 [Compound I-2, 1-Cyclopentyl-3-(4-phenoxyphenyl)-1H-pyrazole-4-carboxamide]",> 1000 nM,100 to 500 nM,,
NC(=O)c1sc(C2CCCCC2)nc1-c1ccc(Oc2ccccc2)cc1 [Compound I-4],> 1000 nM,,relatively low,< 1000 nM
"NC(=O)c1sc(C2CCCC2)nc1-c1ccc(Oc2ccccc2)cc1 [Compound I-3, 2-Cyclopentyl-4-(4-phenoxyphenyl)thiazole-5-carboxamide]",> 1000 nM,100 to 500 nM,,
